Test results as given in PMC11129186, “New Improved cGMP Analogues to Target Rod Photoreceptor Degeneration” (Journal of Medicinal Chemistry, 2024).
Values joined by “and” are separate entries in the source; they are usually repeats but may differ in a detail not shown here. Equal entries are not always repeated. Where two headings read alike, the source gives them in different places.

Tests used:
[1] = system: 661W-A11 cells stressed with zaprinast; experiment: Cell death TUNEL assay in cells stressed with zaprinast; format: cell-based, mouse; settings: 50 μM compound, 200 μM zaprinast for 48 h
Procedure: Viability assay cannot discriminate between protection from cell death and possible increased proliferation induced by the treatment. To discriminate between these two responses, we analyzed cell death by the TUNEL assay that detects dying cells based on fragmented chromatin. The TUNEL assay confirmed data obtained with the MTT assay (Figure 3B,C).
(§1) 661W-A11 cells were seeded in 96-well plates at a density of 6000 cells/well or in 24-well plates at a density of 20,000 cells/well. Twenty-four h after seeding, cells were pretreated with 50 μM of either CN03-Na^+ or CN03 or SP-CN03 or oxo-CN03 or dithio-CN03 for 2 h, followed by 200 μM zaprinast treatment for 48 h in the presence of the compounds. Control groups were treated with an equal volume of vehicle, H2O or DMSO.
661W-A11 cells were seeded in 24-well plates at a density of 20,000 cells/well. After treatments, cells were fixed with 2% paraformaldehyde for 10 min and permeabilized with 1 M Na^+ citrate and 0.1% Triton X-100 on ice for 2 min. Cells were incubated with TUNEL solution “In situ Cell Death Detection Kit” TMR Red (Roche) for 30 min at 37 °C, and cell nuclei were stained with 0.1 μg/mL 4′,6-diamidin-2-fenilindolo (DAPI). […] The quantification of percentage of dead cells was based on the ratio of TUNEL-labeled cells on the total number of cells (DAPI-labeled).

[2] = system: 661W-A11 cells stressed with zaprinast; experiment: Cell viability MTT assay in cells stressed with zaprinast; format: cell-based, mouse; settings: 50 μM compound, 200 μM zaprinast for 48 h
Procedure: The neuroprotective activity of the newly developed compounds was then evaluated in 661W-A11 cells stressed with zaprinast. Viability was assessed by an MTT assay.
as §1
661W-A11 cells were cultured on 96-well plates at a density of 6000 cells/well. After compound treatments, the culture medium was replaced with medium containing 1 mg/mL of MTT (Sigma) and cells were cultured for 90 min at 37 °C. Viability was assessed by MTT assay (see above for detailed procedure). OD was measured at 570 nm.

[3] = Thermal analysis (DSC and TG); format: physicochemical; settings: crystal modification I; scan 10 °C/min
Procedure: Finally, we performed thermal analyses on crystal modification I by using differential scanning calorimetry (DSC) and thermogravimetry (TG), both of which confirmed a behavior analogous to that of CN03. There were no observable melting points. Instead, there was only a sharp exothermic event on DSC at 170 °C associated with significant mass loss on TG, which we interpreted as a thermal decomposition of the compound (Figure 1B). It should be noted that decomposition peaks on DSC and TG are not indicative of physical stability (e.g., melting point, and solubility). Since the material was crystalline, it was considered to own a melting point at a higher temperature than this decomposition.
DSC analyses were carried out on a Mettler DSC822e, equipped with a Thermo Haake EK45/MT cooler. The samples were weighed into a 40 μL Al-cup, which was then closed with a pierced lid. The sample was scanned from 25 to 300 °C, with a scan rate of 10 °C/min.
TG was performed on a Mettler TGA/SDTA 851e, equipped with a Haake C50P cooler. Alternatively, thermogravimetric and DSC analyses were carried out simultaneously in a Mettler Toledo TGA/DSC 3+. The samples were weighed into a 100 μL Al-cup, and this was flushed with dry nitrogen gas during the analysis. The sample was scanned from 25 to 300 °C, with a scan rate of 10 °C/min.

[4] = system: primary photoreceptor cells derived from rd1 mutant mice; experiment: Cell death TUNEL assay in primary photoreceptors; format: cell-based, mouse; settings: 50 μM added at day 10 of differentiation, read at day 11
From the text: To address this possible limitation of the RP model, we tested the CN03 analogues in another RP in vitro cellular model, previously validated for the analysis of cGMP analogues.[10] This model is based on the primary cell culture and differentiation of cells derived from rd1 mutant eyes. The rd1 mouse is one of the best characterized murine models of RP. It carries a mutation in the Phosphodiesterase 6b (Pde6b) gene. Lack of PDE6 function causes high intracellular levels of cGMP in rod photoreceptor cells.[26],[9] […] CN03-Na^+, SP-CN03, and dithio-CN03 were administered to the culture of rd1 mutant cells at a concentration of 50 μM at day 10 of differentiation. The concentration of the compounds and the time of treatment were chosen based on the previously published study in which cGMP inhibitory analogues were tested in this type of primary photoreceptors.[10] Cell death was then analyzed by the TUNEL assay at day 11 of in vitro differentiation.
rd1 mutant mice were purchased from Charles River Italy. The protocol was approved by the Ethical Committee of the University of Modena and Reggio Emilia and by the Italian Ministero della Salute (150/2021-PR). Primary neurospheres were derived from the eyes of rd1 mutant mice, as previously reported.[32] Retinal stem cells in neurospheres were differentiated into photoreceptors, as previously reported.[10]rd1 mutant photoreceptor cells underwent spontaneous cell death after differentiation for 11 days. At day 10, 50 μM of either CN03-Na^+ or SP-CN03 or dithio-CN03 were added to the cells in culture and cell death was assessed 1 day later (day 11 of differentiation) by TUNEL assay (see above for detailed procedure).

[5] = Aqueous solubility at room temperature (phase solubility, HPLC); format: physicochemical
Procedure: Physicochemical properties of dithio-CN03 were characterized and compared to CN03. […] Salt forms of CN03, for example, were prepared varying in aqueous solubility as low as 0.01 mg/mL.[12] To facilitate future development of reactive crystallizations toward other salt forms, a temperature-dependent solubility was also measured between 20 and 75 °C. The resulting solubility curve can be found in the Supporting Information (Figure S38).
The solubility of dithio-CN03 was measured at room temperature and in quadruplicate by phase solubility techniques. Saturated mixtures of the compound were prepared by adding excess starting material to 4 mL vials containing 2 mL of deionized water. They were allowed to equilibrate for 24 h using mild agitation before recording the pH. The clear solution was separated from the solids by filtration with a Cytiva Whatman Mini-Uniprep polypropylene 0.45 μm filter device and diluted to an appropriate analytical concentration where needed. The sample was then analyzed by HPLC, and the solubility was determined by integrating the area of the peak of interest against a standard curve. The solids were also analyzed by XRPD to record the crystal modification obtained.
Solubility data for dithio-CN03
Table S1: Aqueous solubility at room temperature
Sample mg / mL pH of mixture […]
(1 picture or pasted object on this page, not shown here)

[6] = saturated aqueous mixture, room temperature

## CCN(CC)CC.O=c1c2nc(Br)n([C@@H]3O[C@@H]4COP(=S)(S)O[C@H]4[C@H]3O)c2nc2[nH]c(-c3ccccc3)cn12 (stereo partly drawn) [dithio-CN03, Triethylammonium 8-Bromo-β-phenyl-1,N^2-ethenoguanosine-3′,5′-cyclicmonophosphorodithioate]
[1]
  protection from cell death (TUNEL): highest neuroprotective activity
[2]
  protective effect on cell viability (MTT): significantly higher protective effects compared to CN03-Na^+
[3]
  exothermic event on DSC with mass loss on TG, interpreted as thermal decomposition: 170 °C
[4]
  neuroprotective effect, cell death (TUNEL): significantly better neuroprotective activity
[5]; aqueous
  solubility compared to CN03: lower solubility
[5]; deionized water, pH 5.6, deionized H2O, room temperature, corresponds to crystal modification II (trihydrate), read-out: aqueous solubility
  solubility at 24 h: 1170 µg/mL
[5]; deionized water, pH 5.6, deionized H2O, room temperature, read-out: aqueous solubility
  solubility at 24 h: 1800 µM
[5]; deionized water, water, thermodynamic from solid, room temperature, deionized water, 24 h equilibration, read-out: aqueous solubility, single samples 1-4 (Table S1)
  solubility at 24 h: 1160 µg/mL
[5]; room temperature, deionized water, 24 h equilibration
  aqueous solubility, single samples 1-4 (Table S1): 1198 µg/mL and 1160 µg/mL and 1169 µg/mL
[5]; [6]
  pH of mixture, Average (Table S1): 5.6
  pH of mixture, single samples 1-4 (Table S1): 4.7 and 5.6 and 5.9 and 6.3
